According to patent publication US6887896B1, “7-[(7-Alkoxy)-chrom-3-en-6-yl]-heptatrienoic acid and 7-[(3-alkoxy)-5,6-dihydronaphthalen-2-yl]-heptatrienoic acid derivatives having serum glucose reducing activity” (Allergan, Inc., priority 2003, dated 2005):

Key:
RARβ [1] = target: T1, RARβ (Homo sapiens, UniProt P10826); test: chimeric receptor transactivation assay, RARβ; assay type: cell-based; details: for EC50: chimeric receptor transactivation, read-out: RAR Trans. EC50 β; for Emax: percentage compared to the standard compound, read-out: RAR Trans. efficacy (number in parentheses) β
T1 sequence (P10826 183-417 limits assumed): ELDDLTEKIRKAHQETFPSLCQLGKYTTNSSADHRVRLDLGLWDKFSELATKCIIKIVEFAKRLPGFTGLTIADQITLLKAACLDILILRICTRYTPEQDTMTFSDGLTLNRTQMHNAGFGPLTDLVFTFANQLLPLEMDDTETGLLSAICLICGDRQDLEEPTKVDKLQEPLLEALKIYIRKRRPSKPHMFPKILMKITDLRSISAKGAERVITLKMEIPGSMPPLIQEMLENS
How it was run: (§1)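 Cells carrying either full-length RXR (holoreceptor) or chimeric RAR receptors were exposed to compound and reporter transactivation recorded. Potency was expressed as EC50 in nanomolar. Efficacy was expressed as percent of the maximal response of a reference cyclopropyl-tetramethyltetrahydronaphthalene penta-2,4-dienoic acid.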

RARβ [2] = target: T2, RARβ (Homo sapiens, UniProt P10826); test: ligand binding assay, RARβ; details: Table 9 (Formula F); read-out: RAR β Kd
T2 sequence (P10826 1-455): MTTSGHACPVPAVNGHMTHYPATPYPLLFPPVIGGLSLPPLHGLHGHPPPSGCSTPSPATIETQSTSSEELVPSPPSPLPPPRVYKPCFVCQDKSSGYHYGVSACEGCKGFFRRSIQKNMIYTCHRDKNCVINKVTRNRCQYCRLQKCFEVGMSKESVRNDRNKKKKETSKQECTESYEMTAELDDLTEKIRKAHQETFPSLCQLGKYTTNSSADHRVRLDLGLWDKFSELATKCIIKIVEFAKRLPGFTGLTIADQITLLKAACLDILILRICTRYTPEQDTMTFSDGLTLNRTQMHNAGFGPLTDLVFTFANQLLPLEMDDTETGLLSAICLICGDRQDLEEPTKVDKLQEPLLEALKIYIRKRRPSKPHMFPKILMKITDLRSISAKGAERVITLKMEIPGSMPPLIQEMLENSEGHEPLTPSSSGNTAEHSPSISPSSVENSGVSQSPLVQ
How it was run: (§2)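 Binding of compounds to several retinoid receptor subtypes was measured. Results are given as Ki values in nanomolar concentration, derived per Cheng et al.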

RXRα = target: T3, RXRα (Homo sapiens, UniProt P19793); test: holoreceptor transactivation assay, RXRα; assay type: cell-based; details: for EC50: holoreceptor transactivation, read-out: RXR Trans. EC50 α; for Emax: percentage compared to the standard compound, read-out: RXR Trans. efficacy (number in parentheses) α
T3 construct: expressed in transfected cells
T3 sequence (P19793 1-462): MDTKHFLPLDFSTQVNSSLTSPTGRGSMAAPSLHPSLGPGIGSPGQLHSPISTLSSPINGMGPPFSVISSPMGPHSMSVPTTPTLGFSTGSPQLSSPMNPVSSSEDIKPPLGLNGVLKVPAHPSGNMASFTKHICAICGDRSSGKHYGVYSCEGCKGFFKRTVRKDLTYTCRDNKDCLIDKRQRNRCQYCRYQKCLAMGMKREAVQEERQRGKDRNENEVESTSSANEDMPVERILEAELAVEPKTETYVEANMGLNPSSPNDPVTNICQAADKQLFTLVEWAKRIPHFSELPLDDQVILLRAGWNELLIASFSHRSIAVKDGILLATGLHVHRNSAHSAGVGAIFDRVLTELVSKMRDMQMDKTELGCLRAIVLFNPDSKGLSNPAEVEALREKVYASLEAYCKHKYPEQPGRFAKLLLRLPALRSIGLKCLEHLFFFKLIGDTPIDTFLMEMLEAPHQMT
How it was run: as §1

RARα = target: T4, RARα (Homo sapiens, UniProt P10276); test: ligand binding assay, RARα; details: Table 9 (Formula F); read-out: RAR α Kd
T4 sequence (P10276 1-462): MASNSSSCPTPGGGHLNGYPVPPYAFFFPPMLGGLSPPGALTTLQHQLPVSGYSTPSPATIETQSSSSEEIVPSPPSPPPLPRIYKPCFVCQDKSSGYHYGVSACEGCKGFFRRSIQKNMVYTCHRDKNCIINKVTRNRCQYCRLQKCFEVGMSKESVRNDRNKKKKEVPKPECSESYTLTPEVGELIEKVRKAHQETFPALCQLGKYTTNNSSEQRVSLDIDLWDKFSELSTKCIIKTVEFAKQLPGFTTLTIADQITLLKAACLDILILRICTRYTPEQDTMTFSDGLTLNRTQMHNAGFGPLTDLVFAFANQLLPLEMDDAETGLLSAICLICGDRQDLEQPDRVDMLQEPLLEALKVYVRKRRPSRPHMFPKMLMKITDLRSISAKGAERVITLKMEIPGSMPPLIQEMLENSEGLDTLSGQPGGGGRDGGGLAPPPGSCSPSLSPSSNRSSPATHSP
How it was run: as §2

EC50 (RARβ [1]) | Emax (RARβ [1]) | Kd (RARβ [2]) | EC50 (RXRα) | Emax (RXRα) | Kd (RARα) | Structure (SMILES)
14 nM | 19% | 112 nM | 0.9 nM | 58% | 32 nM | CCOc1c(\C(CC)=C(F)/C=C/C(C)=C/C(=O)O)cc2c(c1Br)C(C)(C)CC=C2C(C)CC (stereo not drawn) [Compound A-176, (2E,4E,6E)-7-(4-Bromo-8-sec-butyl-3-ethoxy-5,5-methyl-5,6-dihydro-naphthalen-2-yl)-6-fluoro-3-methyl-nona-2,4,6-trienoic acid]
9 nM | 26% | 79 nM | 0.1 nM | 43% | 9.9 nM | CCOc1c(\C(CC)=C(F)/C=C/C(C)=C/C(=O)O)cc2c(c1Cl)C(C)(C)CC=C2C(C)C [Compound A-178, (2E,4E,6E)-7-(4-Chloro-3-ethoxy-8-isopropyl-5,5-dimethyl-5,6-dihydronaphthalen-2-yl)-6-fluoro-3-methyl-nona-2,4,6-trienoic acid]
